Here are results for 11 molecules from patent US10316056B2, “Chemical compounds and use thereof for improving muscular quality” (BIOPHYTIS, priority 2014, dated 2019).

The test system of experiment [1] is S6 kinase (S6K1) phosphorylation in C2C12 cells. The experiment can be described thus: Phosphorylation of the S6 kinase in C2C12 cells (ELISA pS6K T389), protein synthesis. The format is cell-based, mouse. As to conditions: Mus musculus, C2C12, 2 h; for activity at 10 µM: read-out: Protein synthesis (percentage increase in S6K phosphorylation in muscle cells); for activity: test compounds and 20E reference (10 μM), read-out: S6K1 phosphorylation level. As for the experimental part: After several experiments in which the C2C12 cells differentiated into myotubes were incubated in the presence of IGF-1 or 20E for 2 h 30 or 6 h, two screening tests were developed. Thus, the phosphorylation of the S6 protein kinase and the expression of the myostatin gene were studied in order to determine their modulation by a growth hormone or an ecdysone and to characterize these modulations from a statistical point of view.
The C2C12 myoblast cells (ATCC CRL-1772) are seeded into 6-well plates at a density of 170 000 cells per well and cultured in a DMEM medium containing glucose in a proportion of 4.5 g/l and supplemented with fetal calf serum (10%) and with antibiotics (penicillin and streptomycin). Forty-eight hours later, the myoblasts are induced to differentiate by partial serum depletion (2% instead of 10%) for 5 days. The cells are then placed in a medium which is glucose-depleted (DMEM containing 1 g/l of glucose) and serum-free in the presence of the test molecules or of the references (100 ng/ml IGF-1 or 10 μM 20E) for 2 h. At the end of the experiment, the cells are lysed in a commercial lysis buffer (Invitrogen FNN0011) supplemented with a commercial mixture of anti-proteases (Roche 05056489001). After centrifugation, the cytoplasmic fraction containing the soluble proteins is kept and the protein concentration is determined using a commercial kit (Biorad 500-0114), the principle of which is composed of assaying by the Lowry method. The assaying of the S6 kinase phosphorylation is carried out using a commercial ELISA (Enzyme Linked ImmunoSorbent Assay) kit (Cell signaling 7063). Briefly, 50 μg of protein lysate are deposited in the wells of a 96-well microplate and incubated overnight at 4° C. with the solution of antigen specific for the pS6 kinase threonine 389 antibody. The binding of the antigen to the bottom of the wells is done electrostatically. The solution of antibody to be assayed (pS6K T389) is then incubated at 37° C. in the wells for 2 hours. The antibodies bind specifically to the antigen. The wells are then washed with washing buffer in order to remove the antigen-specific primary antibodies to be assayed which are in excess. The third step consists in binding the detection antibody. The solution of detection antibodies is incubated at 37° C. in the wells for 1 hour. The wells are then washed in order to remove the excess detection antibodies. It should be noted that the detection antibodies are coupled to an enzyme which, in the presence of its substrate, converts it into a reaction product that can be detected and measured by virtue of the appearance of a coloration. […] The appearance of a blue coloration in the substrate indicates the presence of the antibody to be assayed. In order to prevent any saturation phenomenon, a stop solution (generally containing […]) is added and brings about a change in coloration, which goes from blue to yellow. The strength thereof is proportional to the amount of enzyme present and thus to the concentration of antibody sought. The strength of the signal is measured using spectrophotometry at a wavelength of 450 nm.

In experiment [2] the test system is myostatin gene expression in C2C12 cells. The experiment can be described thus: Inhibition of myostatin expression in C2C12 cells (qPCR). The format is cell-based. To be noted: Mus musculus, percentage myostatin gene expression in cells in contact with the compounds related to control cells, C2C12, 6 h. The protocol: After several experiments in which the C2C12 cells differentiated into myotubes were incubated in the presence of IGF-1 or 20E for 2 h 30 or 6 h, two screening tests were developed. Thus, the phosphorylation of the S6 protein kinase and the expression of the myostatin gene were studied in order to determine their modulation by a growth hormone or an ecdysone and to characterize these modulations from a statistical point of view. The C2C12 myoblast cells (ATCC CRL-1772) are seeded into 24-well plates at a density of 30 000 cells per well and cultured in a DMEM medium containing glucose in a proportion of 4.5 g/l and supplemented with fetal calf serum (10%) and with antibiotics (penicillin and streptomycin). Forty-eight hours later, the myoblasts are induced to differentiate by partial serum depletion (2% instead of 10%) for 5 days. The cells are then placed in a medium which is glucose-depleted (DMEM containing 1 g/l of glucose) and serum-free in the presence of the test molecules or of the references (100 ng/ml IGF-1 or 10 μ[…]) for 6 h. At the end of the experiment, the messenger RNAs (mRNAs) are extracted using the conventional methodology based on phenol and chloroform. Briefly, the cells are lysed in a Trizol solution (Sigma T9424) containing a strong acid and phenol. The mRNAs are separated from the proteins by addition of chloroform and then centrifugation. They are then precipitated from isopropanol and then suspended at a concentration of 1 μg/μl in an […] ultrapure water. 1 μg of mRNA is then converted by reverse transcription into complementary DNA by the AMV enzyme in the presence of a primer and of a mixture of nucleotides according to the protocol given by the supplier (Applied Biosystems 4368814). […] The qPCRs are carried out on a 7900HT Fast real-Time PCR detection system (Applied Biosystems). The programming conditions are standard and consist of 1 cycle at 95° C. for 15 min, followed by 40 cycles at 95° C. for 15 s and at 60° C. for 1 min and the program ends with a melt curve step between 60° C. and 95° C. […] Fluorescent probes bind to the double-stranded DNA and are fluorescent only once bound to the DNA. A fluorescence threshold is established by the machine's program. When the amount of DNA allows the fluorescent probe to exceed this threshold, a PCR cycle number, called “Ct” for “Cycle Threshold”, is obtained. It is this value which forms the basis of the calculations to quantify the DNA relatively. A ratio R is established between the amount of starting DNA of a sample and that of a control, which has not undergone treatment (i.e. […] R=2^-ΔΔCt).
(In qPCR the cycle at which signal appears reflects the starting amount.)

Regarding `COCCN(C)C(C)[C@H]1CC[C@@]2(O)C3=CC(=O)[C@@H]4C[C@@H](O)[C@@H](O)C[C@]4(C)C3CC[C@]12C` (stereo partly drawn) [Compound 76, (2S,3R,5R,10R,13R,14S,17S)-2,3,14-trihydroxy-17-[1-(2-methoxyethyl(methyl)amino)ethyl]-10,13-dimethyl-2,3,4,5,9,11,12,15,16,17-decahydro-1H-cyclopenta[a]phenanthren-6-one], in experiment [1], the activity at 10 µM lay in the range of 110 to 129% and the activity is approximately 120%. The molecule further came in with a mrna remaining at 10 µM in experiment [2] of less than 70%.
For `COCCNC(C)[C@H]1CC[C@@]2(O)C3=CC(=O)[C@@H]4C[C@@H](O)[C@@H](O)C[C@]4(C)C3CC[C@]12C` (stereo partly drawn) [Compound 42, (2S,3R,5R,10R,13R,14S,17S)-2,3,14-trihydroxy-17-[1-(2-methoxyethylamino)ethyl]-10,13-dimethyl-2,3,4,5,9,11,12,15,16,17-decahydro-1H-cyclopenta[a]phenanthren-6-one], in experiment [1], the activity at 10 µM is more than 130% and the activity lay within 130 to 140%.
Turning to `C[C@]12C[C@H](O)[C@H](O)C[C@H]1C(=O)C=C1C2CC[C@]2(C)[C@@H](C(=O)CSCCO)CC[C@@]12O` (stereo partly drawn) [Compound 94, (2S,3R,5R,10R,13R,14S,17S)-2,3,14-trihydroxy-17-[2-(2-hydroxyethylsulfanyl)acetyl]-10,13-dimethyl-2,3,4,5,9,11,12,15,16,17-decahydro-1H-cyclopenta[a]phenanthren-6-one], in experiment [1], the activity at 10 µM is more than 130% and the activity was 130 to 140%. The mrna remaining at 10 µM in experiment [2] is less than 70%.
As for `CC(NCc1cccnc1)[C@H]1CC[C@@]2(O)C3=CC(=O)[C@@H]4C[C@@H](O)[C@@H](O)C[C@]4(C)C3CC[C@]12C` (stereo partly drawn) [Compound 43, (2S,3R,5R,10R,13R,14S,17S)-2,3,14-trihydroxy-10,13-dimethyl-17-[1-(3-pyridylmethylamino)ethyl]-2,3,4,5,9,11,12,15,16,17-decahydro-1H-cyclopenta[a]phenanthren-6-one], in experiment [1], the activity at 10 µM fell in the range of 110 to 129% and the activity was approximately 120%. Moreover, the mrna remaining at 10 µM in experiment [2] was less than 70%.
With `COCCN(C(=O)COC)C(C)[C@H]1CC[C@@]2(O)C3=CC(=O)[C@@H]4C[C@@H](O)[C@@H](O)C[C@]4(C)C3CC[C@]12C` (stereo partly drawn) [Compound 41, 2-methoxy-N-(2-methoxyethyl)-N-[1-[(2S,3R,5R,10R,13R,14S,17S)-2,3,14-trihydroxy-10,13-dimethyl-6-oxo-2,3,4,5,9,11,12,15,16,17-decahydro-1H-cyclopenta[a]phenanthren-17-yl]ethyl]acetamide], in experiment [1], the activity at 10 µM is 110 to 129% and the activity is approximately 120%. This molecule displayed a mrna remaining at 10 µM in experiment [2] of less than 70%.
Taken in the same sequence, the figures for `CCN(CC)CCO/N=C(/C)[C@H]1CC[C@@]2(O)C3=CC(=O)[C@@H]4C[C@@H](O)[C@@H](O)C[C@]4(C)C3CC[C@]12C` (stereo partly drawn) [Compound 32, (2S,3R,5R,10R,13R,14S,17S)-17-(N-(2-diethylaminoethoxy)-C-methylcarbonimidoyl)-2,3,14-trihydroxy-10,13-dimethyl-2,3,4,5,9,11,12,15,16,17-decahydro-1H-cyclopenta[a]phenanthren-6-one] were 110 to 129%, approximately 120% and less than 70%.
Turning to `C[C@]12C[C@H](O)[C@H](O)C[C@H]1C(=O)C=C1C2CC[C@]2(C)[C@@H](C(=O)CN3CCOCC3)CC[C@@]12O` (stereo partly drawn) [Compound 81, (2S,3R,5R,10R,13R,14S,17S)-2,3,14-trihydroxy-10,13-dimethyl-17-(2-morpholinoacetyl)-2,3,4,5,9,11,12,15,16,17-decahydro-1H-cyclopenta[a]phenanthren-6-one], in experiment [1], the activity at 10 µM lay in the range of 110 to 129% and the activity is approximately 120%. Further, in experiment [2], the mrna remaining at 10 µM was less than 70%.
As for `CC([C@H]1CC[C@@]2(O)C3=CC(=O)[C@@H]4C[C@@H](O)[C@@H](O)C[C@]4(C)C3CC[C@]12C)N(CC(F)F)C(=O)c1ccco1` (stereo partly drawn) [Compound 67, N-(2,2-difluoroethyl)-N-[1-[(2S,3R,5R,10R,13R,14S,17S)-2,3,14-trihydroxy-10,13-dimethyl-6-oxo-2,3,4,5,9,11,12,15,16,17-decahydro-1H-cyclopenta[a]phenanthren-17-yl]ethyl]furan-2-carboxamide], in experiment [1], the activity at 10 µM is more than 130% and the activity lay in the range of 130 to 140%. Besides, in experiment [2], the mrna remaining at 10 µM was less than 70%.
As for `COCC(=O)N(CC1CCCO1)C(C)[C@H]1CC[C@@]2(O)C3=CC(=O)[C@@H]4C[C@@H](O)[C@@H](O)C[C@]4(C)C3CC[C@]12C` (stereo partly drawn) [Compound 62, 2-methoxy-N-(tetrahydrofuran-2-ylmethyl)-N-[1-[(2S,3R,5R,10R,13R,14S,17S)-2,3,14-trihydroxy-10,13-dimethyl-6-oxo-2,3,4,5,9,11,12,15,16,17-decahydro-1H-cyclopenta[a]phenanthren-17-yl]ethyl]acetamide], in experiment [1], the activity at 10 µM was more than 130% and the activity lay within 130 to 140%. In experiment [2], this molecule displayed a mrna remaining at 10 µM of less than 70%.
As for `C=CCCO/N=C(/C)[C@H]1CC[C@@]2(O)C3=CC(=O)[C@@H]4C[C@@H](O)[C@@H](O)C[C@]4(C)C3CC[C@]12C` (stereo partly drawn) [Compound 28, (2S,3R,5R,10R,13R,14S,17S)-17-(N-but-3-enoxy-C-methylcarbonimidoyl)-2,3,14-trihydroxy-10,13-dimethyl-2,3,4,5,9,11,12,15,16,17-decahydro-1H-cyclopenta[a]phenanthren-6-one], in experiment [1], the activity at 10 µM is more than 130% and the activity was in the range of 130 to 140%. Besides, the mrna remaining at 10 µM in experiment [2] was less than 70%.
Take `C[C@]12C[C@H](O)[C@H](O)C[C@H]1C(=O)C=C1C2CC[C@]2(C)[C@@H](C(=O)CN3CCC(CCO)CC3)CC[C@@]12O` (stereo partly drawn) [Compound 89, (2S,3R,5R,10R,13R,14S,17S)-2,3,14-trihydroxy-17-[2-[4-(2-hydroxyethyl)-1-piperidyl]acetyl]-10,13-dimethyl-2,3,4,5,9,11,12,15,16,17-decahydro-1H-cyclopenta[a]phenanthren-6-one]: in experiment [1], the activity at 10 µM is more than 130% and the activity is 130 to 140%. The molecule further showed a mrna remaining at 10 µM in experiment [2] of less than 70%.
